From patent publication US8710233B2 (Gruenenthal GmbH, priority 2005, dated 2014)
Each block holds one molecule with its values, some of them ahead of it.

Columns and labels:
[1] = target: VR1/TRPV1 receptor (Homo sapiens, UniProt Q8NER1); experiment: IC50 (human) after pH stimulus; type: cell-based; conditions: for IC50: table 4; for inhibition in percent, IC50 (human) after pH stimulus / inhibition at 1 µM: @ 1 μM, ne = no effect
[2] = target: T1, vanilloid receptor (VR1) (Homo sapiens, UniProt Q8NER1); experiment: FLIPR Ca2+ influx assay on CHO K1 cells transfected with the VR1 gene (pharmacological method II); type: cell-based; conditions: table 4; capsaicin; read-out: Ki (human) Cap.
T1 construct: expressed in transfected cells; host or cells: CHO K1 cells (ECACC), stably transfected
T1 sequence (Q8NER1 whole entry): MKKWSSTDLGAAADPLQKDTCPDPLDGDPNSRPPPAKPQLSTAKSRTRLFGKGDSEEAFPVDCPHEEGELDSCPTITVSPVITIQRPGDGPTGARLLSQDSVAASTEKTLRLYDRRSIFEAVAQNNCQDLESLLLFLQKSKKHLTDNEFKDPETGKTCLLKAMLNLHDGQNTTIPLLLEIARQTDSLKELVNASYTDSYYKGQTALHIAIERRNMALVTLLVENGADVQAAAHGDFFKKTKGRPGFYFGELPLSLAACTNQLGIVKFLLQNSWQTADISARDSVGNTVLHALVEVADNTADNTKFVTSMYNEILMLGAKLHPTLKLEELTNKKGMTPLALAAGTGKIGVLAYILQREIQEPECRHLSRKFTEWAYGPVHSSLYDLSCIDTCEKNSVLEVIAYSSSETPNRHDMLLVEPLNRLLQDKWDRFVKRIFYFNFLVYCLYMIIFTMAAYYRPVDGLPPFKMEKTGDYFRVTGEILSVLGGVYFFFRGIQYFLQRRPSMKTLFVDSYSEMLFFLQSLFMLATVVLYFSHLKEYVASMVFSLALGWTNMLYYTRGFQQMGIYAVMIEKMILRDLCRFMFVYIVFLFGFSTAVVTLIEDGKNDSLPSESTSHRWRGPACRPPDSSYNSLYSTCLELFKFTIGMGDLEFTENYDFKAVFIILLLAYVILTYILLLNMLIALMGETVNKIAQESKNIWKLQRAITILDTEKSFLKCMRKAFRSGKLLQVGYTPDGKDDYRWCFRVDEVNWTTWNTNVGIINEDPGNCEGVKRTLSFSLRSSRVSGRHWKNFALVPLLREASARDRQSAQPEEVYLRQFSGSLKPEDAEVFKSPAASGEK
Excerpt: In this FLIPR assay, the influx of Ca^2+ is quantified with the assistance of a Ca^2+-sensitive dye (type Fluo-4, Molecular Probes Europe BV, Leiden, Netherlands) in a Fluorescent Imaging Plate Reader (FLIPR, Molecular Devices, Sunnyvale, USA) as described below.
II. Functional Investigations on the Vanilloid Receptor (VR1)
The agonistic or antagonistic action of the substances to be investigated on the vanilloid receptor (VR1) may also be determined with the following assay. According to this assay, the influx of Ca^2+ through the channel is quantified with the assistance of a Ca^2+-sensitive dye (type Fluo-4, Molecular Probes Europe BV, Leiden, Netherlands) in a Fluorescent Imaging Plate Reader (FLIPR, Molecular Devices, Sunnyvale, USA).
Chinese hamster ovary cells (CHO K1 cells, European Collection of Cell Cultures (ECACC), Great Britain) are stably transfected with the VR1 gene. For functional investigations, these cells are plated out onto poly-D-lysine-coated, black 96 well plates with a clear bottom (BD Biosciences, Heidelberg, Germany) at a density of 25,000 cells/well. The cells are incubated overnight at 37° C. and 5% CO2 in a culture medium (Ham's Nutrient Mixture F12, 10 vol. % FCS (foetal calf serum), 18 μg/mL L-proline). On the following day, the cells are incubated with Fluo-4 (Fluo-4 2 μM, Pluronic F127 0.01 vol. %, Molecular Probes in HBSS (Hank's buffered saline solution), Gibco Invitrogen GmbH, Karlsruhe, Germany) for 30 minutes at 37° C. The plates are then washed 3 times with HBSS buffer and, after a further 15 minutes' incubation at room temperature, used for […] measurement in the FLIPR. […] Quantification proceeds by measuring the highest fluorescence intensity (FC, fluorescence counts) over time.
The FLIPR protocol comprises 2 additions of substance. The substances to be tested (10 μM) are firstly pipetted onto the cells and Ca^2+ influx is compared with the control (capsaicin 10 μM) (% activation relative to the Ca^2+ signal after addition of 10 μM of capsaicin). After 5 minutes' incubation, 100 nM of capsaicin are added and the influx of Ca^2+ is again determined.
The percentage inhibition in comparison with the maximum achievable inhibition with 10 μM capsaicin is calculated.

[3] = read-out: inhibition in percent, IC50 (human) after pH stimulus

VR1/TRPV1 receptor, sequence (Q8NER1 whole entry): as above

Compound: CC1CCCN(c2nc(C(F)(F)F)ccc2CNC(=O)C(C)c2ccc(NS(C)(=O)=O)c(F)c2)C1 (stereo not shown) [Compound 282]
inhibition at 0.01 µM [1, 3]: 12% | inhibition at 0.1 µM [1, 3]: 55%

Compound: CCCN(CCC)c1nc(C(F)(F)F)ccc1CNC(=O)C(C)c1ccc(NS(C)(=O)=O)c(C)c1 (stereo not shown) [Compound 331]
inhibition at 0.1 µM [1, 3]: 18% | inhibition at 1 µM [1, 3]: 26% | inhibition at 5 µM [1, 3]: 22%

Compound: CC(C(=O)NCc1ccc(C(F)(F)F)cc1OC1CCCCC1)c1ccc(NS(C)(=O)=O)c(F)c1 (stereo not shown) [Compound 238]
inhibition at 0.01 µM [1, 3]: 3%

Compound: CC(C(=O)NCc1ccc(C(F)(F)F)nc1Nc1ccc(F)cc1)c1ccc(NS(C)(=O)=O)c(F)c1 (stereo not shown) [Compound 112]
inhibition at 1 µM [1, 3]: 26%

Compound: COc1ccc(-c2nc(C(F)(F)F)ccc2CNC(=O)C(C)c2ccc(NS(C)(=O)=O)c(F)c2)cc1OC (stereo not shown) [Compound 326]
inhibition at 1 µM [1, 3]: 8% | inhibition at 5 µM [1, 3]: 32%

Compound: CC(C(=O)NCc1ccc(C(F)(F)F)nc1CCC(C)(C)C)c1ccc(NS(C)(=O)=O)c(F)c1 (stereo not shown) [Compound 263]
inhibition at 0.01 µM [1, 3]: 4% | inhibition at 0.1 µM [1, 3]: 52%

Compound: CC(C(=O)NCc1ccc(C(F)(F)F)cc1N1CCN(c2ccc(C(F)(F)F)cc2)CC1)c1ccc(NS(C)(=O)=O)c(F)c1 (stereo not shown) [Compound 248]
inhibition at 1 µM [1, 3]: 63%

Compound: CC(C(=O)NCc1ccc(C(F)(F)F)nc1N1CCN(C2CCCCC2)CC1)c1ccc(NS(C)(=O)=O)c(F)c1 (stereo not shown) [Compound 260]
inhibition at 0.1 µM [1, 3]: 8.5%

Compound: CCCCCCOc1nc(C(F)(F)F)ccc1CNC(=O)C(C)c1ccc(NS(C)(=O)=O)c(C)c1 (stereo not shown) [Compound 257]
inhibition at 0.01 µM [1, 3]: 11% | inhibition at 0.1 µM [1, 3]: 63%

Compound: Cc1cc(C(C)C(=O)NCc2ccc(C(F)(F)F)nc2N2CCC(C)CC2)ccc1NS(C)(=O)=O (stereo not shown) [Compound 196]
inhibition at 0.01 µM [1, 3]: 6% | inhibition at 0.1 µM [1, 3]: 48%

Compound: CC(C(=O)NCc1ccc(C(F)(F)F)cc1N1CCN(C2CCCCC2)CC1)c1ccc(NS(C)(=O)=O)c(F)c1 (stereo not shown) [Compound 319]
inhibition at 1 µM [1, 3]: 4%

Compound: CCCCOc1nc(C(F)(F)F)ccc1CNC(=O)C(C)c1ccc(NS(C)(=O)=O)c(C)c1 (stereo not shown) [Compound 256]
inhibition at 0.01 µM [1, 3]: 15% | inhibition at 0.1 µM [1, 3]: 43%

Compound: CC(C(=O)NCc1ccc(C(F)(F)F)nc1N1CCN(C)CC1)c1ccc(NS(C)(=O)=O)c(F)c1 (stereo not shown) [Compound 134]
inhibition at 1 µM [1, 3]: 15%

Compound: CC(C)OC1CCN(c2nc(C(F)(F)F)ccc2CNC(=O)C(C)c2ccc(NS(C)(=O)=O)c(F)c2)CC1 (stereo not shown) [Compound 162]
inhibition at 0.1 µM [1, 3]: 31%

Compound: CC(C(=O)NCc1ccc(C(F)(F)F)nc1N1CCC(CN(C)C)(c2ccccc2)CC1)c1ccc(NS(C)(=O)=O)c(F)c1 (stereo not shown) [Compound 259]
inhibition at 0.1 µM [1, 3]: 0%

Compound: CCCCCCOc1nc(C(C)(C)C)ccc1CNC(=O)C(C)c1ccc(NS(C)(=O)=O)c(F)c1 (stereo not shown) [Compound 236]
inhibition at 0.1 µM [1, 3]: 2%

Compound: CC(C(=O)NCc1ccc(C(F)(F)F)nc1N1CCCCC1C)c1ccc(NS(C)(=O)=O)c(F)c1 (stereo not shown) [Compound 283]
inhibition at 0.01 µM [1, 3]: 11% | inhibition at 0.1 µM [1, 3]: 43%

The next lines start with the values.

Ki [2]: 0.9 nM | IC50 [1]: 154 nM
Compound: CC(C(=O)NCc1ccc(C(C)(C)C)nc1N1CCCCCC1)c1ccc(NS(C)(=O)=O)c(F)c1 (stereo not shown) [Example 296, N-(2-azepan-1-yl-6-tert-butyl-pyridin-3-ylmethyl)-2-(3-fluoro-4-methansulfonylamino-phenyl)-propionamide]

Ki [2]: 44 nM | inhibition in percent, IC50 (human) after pH stimulus [1]: ne @ 1 μM
Compound: Cc1cc(C(F)(F)F)nc(OC2CCCC2)c1CNC(=O)C(C)c1ccc(NS(C)(=O)=O)c(F)c1 (stereo not shown) [Example 349]

Ki [2]: 32.7 nM | inhibition at 1 µM [1, 3]: 6% | inhibition at 5 µM [1, 3]: 63%
Compound: CC(C(=O)NCc1cnc(C(F)(F)F)cc1-c1ccccc1)c1ccc(NS(C)(=O)=O)c(F)c1 (stereo not shown) [Example 292, 2-(3-fluoro-4-methylsulfonamido-phenyl)-N-(4-phenyl-6-trifluoromethyl-pyridin-3-ylmethyl)-propionamide]

Ki [2]: 2.1 nM | IC50 [1]: 59.5 nM
Compound: CCC/C=C\c1nc(C(F)(F)F)ccc1CNC(=O)C(C)c1ccc(NS(C)(=O)=O)c(F)c1 (stereo not shown) [Example 300, 2-(3-fluoro-4-methylsulfonamido-phenyl)-N-(2-pent-1-enyl-6-trifluoromethyl-pyridin-3-ylmethyl)-propionamide]

Ki [2]: 17.5 nM | inhibition at 5 µM [1, 3]: 4% | inhibition at 10 µM ([1]; @ 10 μM, read-out: inhibition in percent, IC50 (human) after pH stimulus): 32%
Compound: Cc1cc(C(F)(F)F)nc(N2CCC(C)CC2)c1CNC(=O)C(C)c1ccc(NS(C)(=O)=O)c(F)c1 (stereo not shown) [Example 318, N-(4,4′-dimethyl-6′-trifluoromethyl-3,4,5,6-tetrahydro-2H-[1,2′]bipyridinyl-3′-ylmethyl)-2-(3-fluoro-4-methylsulfonamido-phenyl)-propionamide]

Ki [2]: 59.4 nM | inhibition at 5 µM [1, 3]: 40%
Compound: CC(C(=O)NCc1ccc(C(F)(F)F)cc1-c1cccnc1)c1ccc(NS(C)(=O)=O)c(F)c1 (stereo not shown) [Example 46, 2-(3-fluoro-4-(methylsulfonamido)phenyl)-N-(2-(pyridin-3-yl)-4-(trifluoromethyl)benzyl)propanamide]

Ki [2]: 19.3 nM | IC50 [1]: 1140 nM
Compound: CC(C(=O)NCc1ccc(C(F)(F)F)nc1NCC1CCN(C(=O)OC(C)(C)C)CC1)c1ccc(NS(C)(=O)=O)c(F)c1 (stereo not shown) [Example 342, 4-[(3-{[2-(3-fluoro-4-methylsulfonamido-phenyl)-propionylamino]-methyl}-6-trifluoromethyl-pyridin-2-ylamino)-methyl]-piperidine-1-carbonic acid tert-butyl ester]

Ki [2]: 44 nM
Compound: CCOC(=O)c1cc(CNC(=O)C(C)c2ccc(NS(C)(=O)=O)c(F)c2)c(N2CCC(C)CC2)cc1C(F)(F)F (stereo not shown) [Example 351, 5-{[2-(3-fluoro-4-methylsulfonamido-phenyl)-propionylamino]-methyl}-4-(4-methyl-piperidin-1-yl)-2-trifluoromethyl-benzoic acid ethyl ester]

inhibition at 0.05 µM ([1]; @ 0.05 μM, read-out: inhibition in percent, IC50 (human) after pH stimulus): 18%
Compound: CC(C)COc1nc(C(C)(C)C)ccc1CNC(=O)C(C)c1ccc(NS(C)(=O)=O)c(F)c1 (stereo not shown) [Compound 353]

Ki [2]: 3 nM
Compound: CC1CC(C)CC(Oc2nc(C(F)(F)F)ccc2CNC(=O)C(C)c2ccc(NS(C)(=O)=O)c(F)c2)C1 (stereo not shown) [Example 377, N-((2-(3,5-dimethylcyclohexyloxy)-6-(trifluoromethyl)pyridin-3-yl)methyl)-2-(3-fluoro-4-(methylsulfonamido)phenyl)propanamide]

IC50 [1]: 30 nM
Compound: CCCCCOc1nc(C(F)(F)F)ccc1CNC(=O)C(C)c1ccc(NS(C)(=O)=O)c(F)c1 (stereo not shown) [Example 375, 2-(3-fluoro-4-(methylsulfonamido)phenyl)-N-((2-(pentyloxy)-6-(trifluoromethyl)pyridin-3-yl)methyl)propanamide]

inhibition at 0.1 µM [1, 3]: 25% | inhibition at 1 µM [1, 3]: 54%
Compound: CC(C(=O)NCc1ccc(C(F)(F)F)cc1-c1cccc(Cl)c1)c1ccc(NS(C)(=O)=O)c(F)c1 (stereo not shown) [Example 322, N-(3′-chloro-5-trifluoromethyl-biphenyl-2-ylmethyl)-2-(3-fluoro-4 methylsulfonamido-phenyl)-propionamide]

Ki [2]: 1.6 nM
Compound: CCC(C(=O)NCc1ccc(C(F)(F)F)nc1N1CCC(C)CC1)c1ccc(NS(C)(=O)=O)c(F)c1 (stereo not shown) [Example 347, 2-(3-fluoro-4-methylsulfonamido-phenyl)-N-(4-methyl-6′-trifluoromethyl-3,4,5,6-tetrahydro-2H-[1,2′]bipyridinyl-3′-ylmethyl)-butyramide]

inhibition at 1 µM [1, 3]: 27%
Compound: CCCCC(CCCC)Oc1nc(C(F)(F)F)ccc1CNC(=O)C(C)c1ccc(NS(C)(=O)=O)c(F)c1 (stereo not shown) [Compound 352]

IC50 [1]: 33 nM
Compound: CC(C(=O)NCc1ccc(C(F)(F)F)cc1-c1ccc(F)c(Cl)c1)c1ccc(NS(C)(=O)=O)c(F)c1 (stereo not shown) [Example 324, N-(3′-chloro-4′-fluoro-5-trifluoromethyl-biphenyl-2-ylmethyl)-2-(3-fluoro-4-methylsulfonamido-phenyl)-propionamide]

inhibition in percent, IC50 (human) after pH stimulus [1]: ne @ 1 μM
Compound: CC(C(=O)NCc1c(CO)cc(C(C)(C)C)nc1OC1CCCC1)c1ccc(NS(C)(=O)=O)c(F)c1 (stereo not shown) [Example 261, N-(6-tert-butyl-2-cyclopentyloxy-4-hydroxymethyl-pyridin-3-ylmethyl)-2-(3-fluoro-4-methylsulfonamido-phenyl)-propionamide]
